Measured values reported in PubChem BioAssay (NCI).
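Following 48 hours of exposure in 96-well plates, responses at five concentrations were used to interpolate endpoints linearly. The concentration for 50% growth inhibition is given as GI50. TGI marks complete inhibition of growth.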

Experiments:
Assay in all cases: DTP human tumour cell line panel, 48 h
786-0 renal = system: 786-0 renal
A498 renal = system: A498 renal
A549 NSCLC = system: A549 NSCLC
ACHN renal = system: ACHN renal
BT-549 breast = system: BT-549 breast
CAKI-1 renal = system: CAKI-1 renal
CCRF-CEM leukemia = system: CCRF-CEM leukemia
COLO 205 colon = system: COLO 205 colon
DU-145 prostate = system: DU-145 prostate
EKVX NSCLC = system: EKVX NSCLC
HCC-2998 colon = system: HCC-2998 colon
HCT-116 colon = system: HCT-116 colon
HCT-15 colon = system: HCT-15 colon
HL-60(TB) leukemia = system: HL-60(TB) leukemia
HOP-62 NSCLC = system: HOP-62 NSCLC
HOP-92 NSCLC = system: HOP-92 NSCLC
HS 578T breast = system: HS 578T breast
HT29 colon = system: HT29 colon
IGROV1 ovarian = system: IGROV1 ovarian
K-562 leukemia = system: K-562 leukemia
KM12 colon = system: KM12 colon
LOX IMVI melanoma = system: LOX IMVI melanoma
M14 melanoma = system: M14 melanoma
MALME-3M melanoma = system: MALME-3M melanoma
MCF7 breast = system: MCF7 breast
MDA-MB-231 breast = system: MDA-MB-231 breast
MDA-MB-435 = system: MDA-MB-435
MOLT-4 leukemia = system: MOLT-4 leukemia
NCI-H226 lung = system: NCI-H226 lung
NCI-H460 lung = system: NCI-H460 lung
NCI-H522 lung = system: NCI-H522 lung
NCI/ADR-RES ovarian = system: NCI/ADR-RES ovarian
OVCAR-3 ovarian = system: OVCAR-3 ovarian
OVCAR-4 ovarian = system: OVCAR-4 ovarian
OVCAR-5 ovarian = system: OVCAR-5 ovarian
OVCAR-8 ovarian = system: OVCAR-8 ovarian
PC-3 prostate = system: PC-3 prostate
RPMI-8226 leukemia = system: RPMI-8226 leukemia
RXF 393 renal = system: RXF 393 renal
SF-268 CNS = system: SF-268 CNS
SF-295 CNS = system: SF-295 CNS
SF-539 CNS = system: SF-539 CNS
SK-MEL-2 melanoma = system: SK-MEL-2 melanoma
SK-MEL-28 melanoma = system: SK-MEL-28 melanoma
SK-MEL-5 melanoma = system: SK-MEL-5 melanoma
SK-OV-3 ovarian = system: SK-OV-3 ovarian
SN12C renal = system: SN12C renal
SNB-19 CNS = system: SNB-19 CNS
SNB-75 CNS = system: SNB-75 CNS
SR leukemia = system: SR leukemia
SW-620 colon = system: SW-620 colon
T-47D breast = system: T-47D breast
TK-10 renal = system: TK-10 renal
U251 CNS = system: U251 CNS
UACC-257 melanoma = system: UACC-257 melanoma
UACC-62 melanoma = system: UACC-62 melanoma
UO-31 renal = system: UO-31 renal

`C/C(=C(/c1ccc(O)cc1)c1ccc(OCCN(C)C)cc1)c1ccc(Cl)cc1` was tested. Which GI50 (786-0 renal) did it give?
The GI50 was 14.8 µM.

And the TGI (786-0 renal)?
Its TGI is 29.5 µM.

And the GI50 (A498 renal)?
Its GI50 is greater than 100 µM.

What about the TGI (A498 renal) of the same molecule?
The TGI was greater than 100 µM.

What about the GI50 (A549 NSCLC) of the same molecule?
The GI50 was 50.9 µM.

What about the TGI (A549 NSCLC) of the same molecule?
Its TGI is greater than 100 µM.

What about the GI50 (ACHN renal) of the same molecule?
Its GI50 is 29.1 µM.

And the TGI (ACHN renal)?
The TGI was 89.4 µM.

What about the GI50 (BT-549 breast) of the same molecule?
The GI50 was 40.9 µM.

What about the TGI (BT-549 breast) of the same molecule?
The TGI was greater than 100 µM.

And the GI50 (CAKI-1 renal)?
The GI50 was 15.8 µM.

What about the TGI (CAKI-1 renal) of the same molecule?
Its TGI is 40.9 µM.

What about the GI50 (CCRF-CEM leukemia) of the same molecule?
Its GI50 is 25 µM.

What about the TGI (CCRF-CEM leukemia) of the same molecule?
Its TGI is 77.7 µM.

What about the GI50 (COLO 205 colon) of the same molecule?
The GI50 was 17.6 µM.

What about the TGI (COLO 205 colon) of the same molecule?
The TGI was 33.1 µM.

What about the GI50 (DU-145 prostate) of the same molecule?
Its GI50 is 34.3 µM.

What about the TGI (DU-145 prostate) of the same molecule?
The TGI was greater than 100 µM.

What about the GI50 (EKVX NSCLC) of the same molecule?
The GI50 was 34.4 µM.

What about the TGI (EKVX NSCLC) of the same molecule?
The TGI was greater than 100 µM.

What about the GI50 (HCC-2998 colon) of the same molecule?
The GI50 was 18.1 µM.

And the TGI (HCC-2998 colon)?
Its TGI is 35.1 µM.

What about the GI50 (HCT-116 colon) of the same molecule?
Its GI50 is 14.8 µM.

What about the TGI (HCT-116 colon) of the same molecule?
The TGI was 28.7 µM.

And the GI50 (HCT-15 colon)?
Its GI50 is 18 µM.

And the TGI (HCT-15 colon)?
The TGI was 37.7 µM.

What about the GI50 (HL-60(TB) leukemia) of the same molecule?
The GI50 was 17.9 µM.

What about the TGI (HL-60(TB) leukemia) of the same molecule?
The TGI was 39.3 µM.

And the GI50 (HOP-62 NSCLC)?
The GI50 was 18.2 µM.

And the TGI (HOP-62 NSCLC)?
Its TGI is 38.7 µM.

And the GI50 (HOP-92 NSCLC)?
The GI50 was 22.3 µM.

What about the TGI (HOP-92 NSCLC) of the same molecule?
Its TGI is 90.3 µM.

And the GI50 (HS 578T breast)?
The GI50 was 20 µM.

And the TGI (HS 578T breast)?
Its TGI is 75.9 µM.

And the GI50 (HT29 colon)?
The GI50 was 16 µM.

And the TGI (HT29 colon)?
Its TGI is 31.9 µM.

And the GI50 (IGROV1 ovarian)?
Its GI50 is 31.6 µM.

What about the TGI (IGROV1 ovarian) of the same molecule?
Its TGI is greater than 100 µM.

And the GI50 (K-562 leukemia)?
Its GI50 is 19.6 µM.

And the TGI (K-562 leukemia)?
Its TGI is 53.8 µM.

And the GI50 (KM12 colon)?
The GI50 was 25.6 µM.

And the TGI (KM12 colon)?
Its TGI is 72.6 µM.

What about the GI50 (LOX IMVI melanoma) of the same molecule?
The GI50 was 17.2 µM.

And the TGI (LOX IMVI melanoma)?
The TGI was 32.1 µM.

What about the GI50 (M14 melanoma) of the same molecule?
The GI50 was 17.6 µM.

And the TGI (M14 melanoma)?
Its TGI is 35.3 µM.

And the GI50 (MALME-3M melanoma)?
Its GI50 is 16 µM.

What about the TGI (MALME-3M melanoma) of the same molecule?
Its TGI is 30.9 µM.

What about the GI50 (MCF7 breast) of the same molecule?
The GI50 was 1.69 µM.

What about the TGI (MCF7 breast) of the same molecule?
Its TGI is 27.2 µM.

And the GI50 (MDA-MB-231 breast)?
Its GI50 is 20.7 µM.

What about the TGI (MDA-MB-231 breast) of the same molecule?
Its TGI is 46.1 µM.

What about the GI50 (MDA-MB-435) of the same molecule?
Its GI50 is 16.6 µM.

What about the TGI (MDA-MB-435) of the same molecule?
Its TGI is 31.4 µM.

What about the GI50 (MOLT-4 leukemia) of the same molecule?
The GI50 was 20 µM.

What about the TGI (MOLT-4 leukemia) of the same molecule?
Its TGI is 52.5 µM.

What about the GI50 (NCI-H226 lung) of the same molecule?
The GI50 was 54.5 µM.

And the TGI (NCI-H226 lung)?
Its TGI is greater than 100 µM.

And the GI50 (NCI-H460 lung)?
Its GI50 is 17.5 µM.

What about the TGI (NCI-H460 lung) of the same molecule?
The TGI was 32.9 µM.

What about the GI50 (NCI-H522 lung) of the same molecule?
The GI50 was 17.4 µM.

What about the TGI (NCI-H522 lung) of the same molecule?
Its TGI is 38 µM.

What about the GI50 (NCI/ADR-RES ovarian) of the same molecule?
The GI50 was 28.3 µM.

And the TGI (NCI/ADR-RES ovarian)?
The TGI was greater than 100 µM.

What about the GI50 (OVCAR-3 ovarian) of the same molecule?
Its GI50 is 24 µM.

What about the TGI (OVCAR-3 ovarian) of the same molecule?
Its TGI is 69 µM.

What about the GI50 (OVCAR-4 ovarian) of the same molecule?
Its GI50 is 35.4 µM.

And the TGI (OVCAR-4 ovarian)?
The TGI was greater than 100 µM.

What about the GI50 (OVCAR-5 ovarian) of the same molecule?
The GI50 was 33.7 µM.

What about the TGI (OVCAR-5 ovarian) of the same molecule?
The TGI was greater than 100 µM.

And the GI50 (OVCAR-8 ovarian)?
Its GI50 is 31 µM.

And the TGI (OVCAR-8 ovarian)?
Its TGI is greater than 100 µM.

And the GI50 (PC-3 prostate)?
Its GI50 is 23.7 µM.

And the TGI (PC-3 prostate)?
Its TGI is 74.8 µM.

And the GI50 (RPMI-8226 leukemia)?
Its GI50 is 20.8 µM.

What about the TGI (RPMI-8226 leukemia) of the same molecule?
Its TGI is 54.5 µM.

And the GI50 (RXF 393 renal)?
The GI50 was 13.8 µM.

And the TGI (RXF 393 renal)?
The TGI was 28.1 µM.

And the GI50 (SF-268 CNS)?
Its GI50 is 36.3 µM.

And the TGI (SF-268 CNS)?
Its TGI is greater than 100 µM.

And the GI50 (SF-295 CNS)?
Its GI50 is 21 µM.

What about the TGI (SF-295 CNS) of the same molecule?
Its TGI is 42.1 µM.

And the GI50 (SF-539 CNS)?
Its GI50 is 16.1 µM.

And the TGI (SF-539 CNS)?
Its TGI is 30.1 µM.

And the GI50 (SK-MEL-2 melanoma)?
The GI50 was 25.6 µM.

What about the TGI (SK-MEL-2 melanoma) of the same molecule?
Its TGI is 84.2 µM.

What about the GI50 (SK-MEL-28 melanoma) of the same molecule?
The GI50 was 16.7 µM.

What about the TGI (SK-MEL-28 melanoma) of the same molecule?
Its TGI is 31.5 µM.

What about the GI50 (SK-MEL-5 melanoma) of the same molecule?
The GI50 was 17.8 µM.

And the TGI (SK-MEL-5 melanoma)?
Its TGI is 33.5 µM.

What about the GI50 (SK-OV-3 ovarian) of the same molecule?
Its GI50 is 48.7 µM.

What about the TGI (SK-OV-3 ovarian) of the same molecule?
Its TGI is greater than 100 µM.

And the GI50 (SN12C renal)?
The GI50 was 32.5 µM.

What about the TGI (SN12C renal) of the same molecule?
Its TGI is greater than 100 µM.

And the GI50 (SNB-19 CNS)?
Its GI50 is 21.4 µM.

And the TGI (SNB-19 CNS)?
Its TGI is 51.1 µM.

What about the GI50 (SNB-75 CNS) of the same molecule?
Its GI50 is 19.9 µM.

And the TGI (SNB-75 CNS)?
The TGI was greater than 100 µM.

And the GI50 (SR leukemia)?
The GI50 was 18.8 µM.

And the TGI (SR leukemia)?
The TGI was 47.9 µM.

And the GI50 (SW-620 colon)?
Its GI50 is 16.2 µM.

What about the TGI (SW-620 colon) of the same molecule?
The TGI was 31.7 µM.

And the GI50 (T-47D breast)?
The GI50 was 12.2 µM.

What about the TGI (T-47D breast) of the same molecule?
The TGI was 59.5 µM.

What about the GI50 (TK-10 renal) of the same molecule?
The GI50 was 79.7 µM.

What about the TGI (TK-10 renal) of the same molecule?
The TGI was greater than 100 µM.

And the GI50 (U251 CNS)?
The GI50 was 16.5 µM.

And the TGI (U251 CNS)?
Its TGI is 31.9 µM.

And the GI50 (UACC-257 melanoma)?
Its GI50 is 16.9 µM.

What about the TGI (UACC-257 melanoma) of the same molecule?
Its TGI is 32.7 µM.

And the GI50 (UACC-62 melanoma)?
Its GI50 is 18.5 µM.

What about the TGI (UACC-62 melanoma) of the same molecule?
Its TGI is 36.5 µM.

What about the GI50 (UO-31 renal) of the same molecule?
Its GI50 is 13.5 µM.

And the TGI (UO-31 renal)?
The TGI was 28.8 µM.
